Experimental data from the supplement of paper PMC13207355.

Assays:
Conditions in all cases: exposure time: 72 h
E13 [1] = patient-derived glioblastoma stem cells of classical subtype; test: surviving fraction (nuclei count normalised to DMSO); higher = more cells surviving (less toxic)
E21 [2] = patient-derived glioblastoma stem cells of mesenchymal subtype; test: as above
E28 [3] = patient-derived glioblastoma stem cells of classical subtype; test: as above
E31 [4] = patient-derived glioblastoma stem cells of proneural subtype; test: as above
E34 [5] = patient-derived glioblastoma stem cells of proneural subtype; test: as above
E57 [6] = patient-derived glioblastoma stem cells of mesenchymal subtype; test: as above
FT3469 [7] = normal neural stem cell line; test: as above
E13 [8] = test: phenotypic distance (Euclidean, principal components) from DMSO controls (arbitrary units); higher = stronger morphological change
E21 [9] = test: as above
E28 [10] = test: as above
E31 [11] = test: as above
E34 [12] = test: as above
E57 [13] = test: as above
FT3469 [14] = test: as above
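Wherever phenotypic distance (Euclidean, principal components) from DMSO controls is given: cell Painting imaging in 384-well plates, CellProfiler features reduced to at least 20 principal components, Euclidean distance versus same-plate DMSO vehicle wells (0.1% v/v), median over six images per well.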
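Wherever surviving fraction (nuclei count normalised to DMSO) is given: nuclei counted by high-content imaging of Hoechst-stained cells in laminin-coated 384-well plates, relative to 0.1% DMSO vehicle wells, with staurosporine as cell-death control.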

COc1cc2c(cc1O)CC[C@@H]1[C@@H]2CC[C@]2(C)[C@@H](O)CC[C@@H]12 [2-methoxyestradiol]
Conditions	phenotypic distance	surviving fraction
E13 [1], 4.1 nM	–	0.992
E13 [1], 12.3 nM	–	0.961
E13 [1], 37 nM	–	0.838
E13 [1], 111.1 nM	–	1.04
E13 [1], 333.3 nM	–	0.816
E13 [1], 1000 nM	–	0.777
E13 [1], 3000 nM	–	0.174
E13 [8], 4.1 nM	0.645	–
E13 [8], 12.3 nM	0.821	–
E13 [8], 37 nM	1.01	–
E13 [8], 111.1 nM	1.47	–
E13 [8], 333.3 nM	0.958	–
E13 [8], 1000 nM	1.4	–
E13 [8], 3000 nM	5.03	–
E21 [2], 4.1 nM	–	0.888
E21 [2], 12.3 nM	–	0.932
E21 [2], 37 nM	–	0.919
E21 [2], 111.1 nM	–	0.885
E21 [2], 333.3 nM	–	0.928
E21 [2], 1000 nM	–	0.803
E21 [2], 3000 nM	–	0.257
E21 [9], 4.1 nM	1	–
E21 [9], 12.3 nM	1.01	–
E21 [9], 37 nM	0.858	–
E21 [9], 111.1 nM	1.42	–
E21 [9], 333.3 nM	1.01	–
E21 [9], 1000 nM	1.82	–
E21 [9], 3000 nM	6.05	–
E28 [3], 4.1 nM	–	1.14
E28 [3], 12.3 nM	–	0.843
E28 [3], 37 nM	–	0.86
E28 [3], 111.1 nM	–	0.687
E28 [3], 333.3 nM	–	0.862
E28 [3], 1000 nM	–	0.768
E28 [3], 3000 nM	–	0.41
E28 [10], 4.1 nM	0.862	–
E28 [10], 12.3 nM	1.15	–
E28 [10], 37 nM	0.941	–
E28 [10], 111.1 nM	1.27	–
E28 [10], 333.3 nM	0.698	–
E28 [10], 1000 nM	1.54	–
E28 [10], 3000 nM	3.97	–
E31 [4], 4.1 nM	–	1.08
E31 [4], 12.3 nM	–	0.913
E31 [4], 37 nM	–	0.985
E31 [4], 111.1 nM	–	0.862
E31 [4], 333.3 nM	–	0.731
E31 [4], 1000 nM	–	0.63
E31 [4], 3000 nM	–	0.194
E31 [11], 4.1 nM	0.701	–
E31 [11], 12.3 nM	0.672	–
E31 [11], 37 nM	0.712	–
E31 [11], 111.1 nM	0.758	–
E31 [11], 333.3 nM	0.88	–
E31 [11], 1000 nM	1.61	–
E31 [11], 3000 nM	5.31	–
E34 [5], 4.1 nM	–	0.925
E34 [5], 12.3 nM	–	0.876
E34 [5], 37 nM	–	1.11
E34 [5], 111.1 nM	–	1.07
E34 [5], 333.3 nM	–	1.02
E34 [5], 1000 nM	–	0.876
E34 [5], 3000 nM	–	0.388
E34 [12], 4.1 nM	0.764	–
E34 [12], 12.3 nM	2.41	–
E34 [12], 37 nM	0.956	–
E34 [12], 111.1 nM	0.641	–
E34 [12], 333.3 nM	0.508	–
E34 [12], 1000 nM	1.21	–
E34 [12], 3000 nM	4.96	–
E57 [6], 4.1 nM	–	1.04
E57 [6], 12.3 nM	–	1.02
E57 [6], 37 nM	–	1.09
E57 [6], 111.1 nM	–	1.06
E57 [6], 333.3 nM	–	1.03
E57 [6], 1000 nM	–	0.891
E57 [6], 3000 nM	–	0.19
E57 [13], 4.1 nM	0.835	–
E57 [13], 12.3 nM	1.06	–
E57 [13], 37 nM	0.97	–
E57 [13], 111.1 nM	0.943	–
E57 [13], 333.3 nM	0.975	–
E57 [13], 1000 nM	2.06	–
E57 [13], 3000 nM	7.41	–
FT3469 [7], 4.1 nM	–	0.794
FT3469 [7], 12.3 nM	–	0.981
FT3469 [7], 37 nM	–	1
FT3469 [7], 111.1 nM	–	0.858
FT3469 [7], 333.3 nM	–	0.846
FT3469 [7], 1000 nM	–	0.855
FT3469 [7], 3000 nM	–	0.527
FT3469 [14], 4.1 nM	1.02	–
FT3469 [14], 12.3 nM	0.62	–
FT3469 [14], 37 nM	0.868	–
FT3469 [14], 111.1 nM	0.854	–
FT3469 [14], 333.3 nM	0.793	–
FT3469 [14], 1000 nM	0.919	–
FT3469 [14], 3000 nM	3.47	–

COc1cc2c[n+](C)c3c4cc5c(cc4ccc3c2cc1OC)OCO5 [Nitidine chloride]
Conditions	phenotypic distance	surviving fraction
E13 [1], 4.1 nM	–	1.02
E13 [1], 12.3 nM	–	0.937
E13 [1], 37 nM	–	1.01
E13 [1], 111.1 nM	–	1.01
E13 [1], 333.3 nM	–	0.836
E13 [1], 1000 nM	–	0.752
E13 [1], 3000 nM	–	0.397
E13 [8], 4.1 nM	0.679	–
E13 [8], 12.3 nM	2.36	–
E13 [8], 37 nM	0.78	–
E13 [8], 111.1 nM	0.431	–
E13 [8], 333.3 nM	1.36	–
E13 [8], 1000 nM	1.35	–
E13 [8], 3000 nM	4.56	–
E21 [2], 4.1 nM	–	0.997
E21 [2], 12.3 nM	–	0.869
E21 [2], 37 nM	–	0.959
E21 [2], 111.1 nM	–	0.703
E21 [2], 333.3 nM	–	0.302
E21 [2], 1000 nM	–	0.295
E21 [2], 3000 nM	–	0.066
E21 [9], 4.1 nM	0.786	–
E21 [9], 12.3 nM	0.739	–
E21 [9], 37 nM	1.02	–
E21 [9], 111.1 nM	1.99	–
E21 [9], 333.3 nM	3.87	–
E21 [9], 1000 nM	4.46	–
E21 [9], 3000 nM	5.64	–
E28 [3], 4.1 nM	–	0.955
E28 [3], 12.3 nM	–	0.92
E28 [3], 37 nM	–	0.878
E28 [3], 111.1 nM	–	0.754
E28 [3], 333.3 nM	–	0.506
E28 [3], 1000 nM	–	0.575
E28 [3], 3000 nM	–	0.216
E28 [10], 4.1 nM	0.661	–
E28 [10], 12.3 nM	0.746	–
E28 [10], 37 nM	1.02	–
E28 [10], 111.1 nM	1.34	–
E28 [10], 333.3 nM	2.74	–
E28 [10], 1000 nM	2.93	–
E28 [10], 3000 nM	3.24	–
E31 [4], 4.1 nM	–	0.905
E31 [4], 12.3 nM	–	1.08
E31 [4], 37 nM	–	0.804
E31 [4], 111.1 nM	–	0.738
E31 [4], 333.3 nM	–	0.582
E31 [4], 1000 nM	–	0.599
E31 [4], 3000 nM	–	0.19
E31 [11], 4.1 nM	0.468	–
E31 [11], 12.3 nM	0.762	–
E31 [11], 37 nM	0.828	–
E31 [11], 111.1 nM	1.43	–
E31 [11], 333.3 nM	1.85	–
E31 [11], 1000 nM	2.23	–
E31 [11], 3000 nM	3.9	–
E34 [5], 4.1 nM	–	1.08
E34 [5], 12.3 nM	–	1.06
E34 [5], 37 nM	–	0.769
E34 [5], 111.1 nM	–	1.08
E34 [5], 333.3 nM	–	0.743
E34 [5], 1000 nM	–	0.706
E34 [5], 3000 nM	–	0.559
E34 [12], 4.1 nM	0.655	–
E34 [12], 12.3 nM	0.652	–
E34 [12], 37 nM	0.901	–
E34 [12], 111.1 nM	1.63	–
E34 [12], 333.3 nM	1.88	–
E34 [12], 1000 nM	2.46	–
E34 [12], 3000 nM	3.01	–
E57 [6], 4.1 nM	–	0.996
E57 [6], 12.3 nM	–	0.919
E57 [6], 37 nM	–	0.965
E57 [6], 111.1 nM	–	0.946
E57 [6], 333.3 nM	–	0.91
E57 [6], 1000 nM	–	0.923
E57 [6], 3000 nM	–	0.216
E57 [13], 4.1 nM	0.377	–
E57 [13], 12.3 nM	0.436	–
E57 [13], 37 nM	0.309	–
E57 [13], 111.1 nM	0.645	–
E57 [13], 333.3 nM	1.22	–
E57 [13], 1000 nM	1.25	–
E57 [13], 3000 nM	7	–
FT3469 [7], 4.1 nM	–	0.854
FT3469 [7], 12.3 nM	–	0.86
FT3469 [7], 37 nM	–	0.854
FT3469 [7], 111.1 nM	–	0.752
FT3469 [7], 333.3 nM	–	0.679
FT3469 [7], 1000 nM	–	0.646
FT3469 [7], 3000 nM	–	0.601
FT3469 [14], 4.1 nM	0.874	–
FT3469 [14], 12.3 nM	0.863	–
FT3469 [14], 37 nM	0.732	–
FT3469 [14], 111.1 nM	1.27	–
FT3469 [14], 333.3 nM	2.17	–
FT3469 [14], 1000 nM	2.35	–
FT3469 [14], 3000 nM	2.82	–
